{"source": "patent US7700584B2", "about": "(Hangzhou Minsheng Pharmaceuticals Co., Ltd., priority 2004, dated 2010)", "key": {"[1]": {"system": "U-937 human histocytic lymphoma", "test": "In vitro inhibition rate to tumor cells (MTT), U-937", "type": "cell-based", "conditions": "for inhibition at 50 µg/mL: Homo sapiens"}, "[2]": {"system": "Bel-7402 human hepatic carcinoma", "test": "In vitro inhibition rate to tumor cells (MTT), Bel-7402", "type": "cell-based", "conditions": "for inhibition at 50 µg/mL: Homo sapiens"}, "[3]": {"system": "MCF-7 human mammary adenocarcinoma", "test": "In vitro inhibition rate to tumor cells (MTT), MCF-7", "type": "cell-based", "conditions": "for inhibition at 50 µg/mL: Homo sapiens"}, "[4]": {"system": "SMMC-7721 human hepatic carcinoma", "test": "In vitro inhibition rate to tumor cells (MTT), SMMC-7721", "type": "cell-based", "conditions": "Homo sapiens"}, "[5]": {"system": "HL-60 human promyelocytic leukemia", "test": "In vitro inhibition rate to tumor cells (MTT), HL-60", "type": "cell-based", "conditions": "for inhibition at 50 µg/mL: Homo sapiens"}, "[6]": {"system": "Hela human cervical carcinoma", "test": "In vitro inhibition rate to tumor cells (MTT), Hela", "type": "cell-based", "conditions": "for inhibition at 50 µg/mL: Homo sapiens, HeLa"}, "[7]": {"system": "LLC mouse Lewis lung carcinoma", "test": "In vitro inhibition rate to tumor cells (MTT), LLC", "type": "cell-based", "conditions": "50 μg/ml; for inhibition at 50 µg/mL: Mus musculus, Lewis lung carcinoma"}, "[8]": {"biological_target": "T1, HIV-1 reverse transcriptase (Human immunodeficiency virus type 1 group M subtype B, UniProt P04585)", "T1 construct": "purchased", "test": "Screening for the in vitro activity against the HIV-1 reverse transcriptase", "type": "biochemical", "method": "Principle of the test: The template to which the HIV-1 reverse transcriptase interacts was covered onto the enzyme-lined template. In the optimal reaction conditions and system, HIV-1 RT will put the substrate comprising Biotin-dUTP onto the reaction template. The activity of the enzyme was measured as the amount of the integrating Biotin-dUTP in the reaction by using streptavidin-labeled horseradish peroxidase. Adding the sample to the reaction system can identify inhibitor of the enzyme.\n1. HIV-1 RT: commercially available.\n2. Treatment of the samples: Before use, the sample was dissolved in DMSO at a suitable concentration, then serially diluted (5×) with double distilled water, five serial dilutions per sample.\n4. Methods: The diluted sample was added into the reaction buffer containing Biotin-dUTP and the genetic engineered target enzyme, and incubated in the optimal reaction conditions. A streptavidin-labeled horseradish peroxidase was added to visual the system, and OD450 was measured."}, "[9]": {"biological_target": "T2, HIV-1 integrase (HIV-1 IN) (Human immunodeficiency virus type 1 group M subtype B, UniProt P04585)", "T2 construct": "a purified HIV-1 integrase was added into each well; purchased", "test": "Screening for the activity against HIV-1 integrase", "type": "biochemical", "method": "Principle of the test: A synthetic oligonucleotide of 30 nt was used as the donor substrate. A synthetic oligonucleotide of 20 nt was used as the target substrate. A 96-well plate was covered by the donor substrate, and a purified HIV-1 integrase was added into each well. ELISA was performed to measure the product of the target DNA chain transfer. A biotin-labeled alkali phosphatase was used to visual the system. OD value was measured by an Enzyme-linked Detector. Add a sample into the reaction system for screening the inhibitor of the enzyme.\n1. HIV-1 IN: commercially available.\n2. Treatment of the samples: Before use, the sample was dissolved in water or DMSO at a suitable concentration, then serially diluted (5×), four serial dilutions per sample. The stock solutions of two samples were 100-fold diluted with DMSO, then 5-fold diluted, four serial dilutions per sample. Positive control: S-y, provided by Shanghai Organic Chemistry Institute.\n3. The donor substrate and target substrate: synthesized by Shanghai Biological Engineering Company (Shanghai Shenggong).\n4. Methods: The diluted sample was added into a 96-well plate covered by the donor substrate, and then added into the reaction buffer containing the genetic engineered target enzyme and biotin-target substrate, incubated in the optimal reaction conditions. A biotin-labeled alkali phosphatase was used to visual the system to determine the absorbance at 450 nm (OD450)."}, "[10]": {"system": "293 cells", "test": "Cell status of 293 cells treated with sample alone (herpes virus screening)", "conditions": "200 μg/ml, 24 hrs"}, "[11]": {"system": "Hela human cervical carcinoma", "test": "In vitro anti-tumor IC50 (MTT), Hela", "type": "cell-based", "conditions": "Homo sapiens, HeLa; Table 4; read-out: IC50 (ug/ml) against tumor cell lines, Hela"}, "[12]": {"system": "U-937 human histocytic lymphoma", "test": "In vitro anti-tumor IC50 (MTT), U-937", "type": "cell-based", "conditions": "Homo sapiens, U-937; Table 4; read-out: IC50 (ug/ml) against tumor cell lines, U-937", "method": "(§1) (1) Single cell suspension was seeded into 96-well plates (the cells was diluted in the PRMI-1640 minimum medium to 3×10^4 cells/ml, […] diluted cells/well). […] The experiments were performed in quadruplicate.\n(§2) (2) The medium was removed. Solutions of the anti-tumor agents (50 compounds) were prepared in a freshly prepared medium at serial concentrations. […] of the solution was added into each well. Incubation was continued for 48 hours.\n(§3) (3) 20 ug of 2 mg/ml MTT was added into each well, and incubated for 4 hours.\n(§4) (4) The medium was removed from the well. The microplates were swiftly turned down to throw-off the medium. […] of DMSO was added into each well, and vortexed at room temperature for 10 minutes.\n(§5) (5) OD value (λ=570 nm) was measured with an Enzyme-Linked Detector.\n(§6) (6) The graph of cell vitality was plotted, and IC50 was calculated."}, "[13]": {"system": "MCF-7 human mammary adenocarcinoma", "test": "In vitro anti-tumor IC50 (MTT), MCF-7", "type": "cell-based", "conditions": "Homo sapiens, MCF7; Table 4; read-out: IC50 (ug/ml) against tumor cell lines, MCF", "method": "as §1, §2, §3, §4, §5, §6"}, "[14]": {"system": "HL-60 human promyelocytic leukemia", "test": "In vitro anti-tumor IC50 (MTT), HL-60", "type": "cell-based", "conditions": "Homo sapiens, HL-60; Table 4; read-out: IC50 (ug/ml) against tumor cell lines, HL-60", "method": "as §1, §2, §3, §4, §5, §6"}, "[15]": {"conditions": "U-937, 50 μg/ml, Table 2 (repeated screening), read-out: inhibition rate, Results (%) U-937"}, "[16]": {"conditions": "Bel-7402, 50 μg/ml, Table 2 (repeated screening), read-out: inhibition rate, Results (%) Bel-7402"}, "[17]": {"conditions": "MCF7, 50 μg/ml, Table 2 (repeated screening), read-out: inhibition rate, Results (%) MCF-7"}, "[18]": {"conditions": "SMMC-7721, 50 μg/ml, Table 2 (repeated screening), read-out: inhibition rate, Results (%) SMMC-7721"}, "[19]": {"conditions": "HL-60, 50 μg/ml, Table 2 (repeated screening), read-out: inhibition rate, Results (%) HL-60"}, "[20]": {"conditions": "50 μg/ml, Table 2 (repeated screening), read-out: inhibition rate, Results (%) Hela"}, "[21]": {"conditions": "50 μg/ml, Table 3 (repeated screening)"}}, "note": "Like-named read-outs stand apart in the source and are kept apart here.", "data": [{"smiles": "C=C1CC2(OC(=O)C(C)C)OC3(CC2C(C)C)C(C)CCC13", "note": "(stereo not drawn) [Compound 3, Curcumol isobutyrate]", "values": [{"measurement": "inhibition at 50 µg/mL", "setting": "[1]; U-937, 50 μg/ml, Table 1, read-out: inhibition rate, Results (%) U-937", "result": 91.7, "unit": "%"}, {"measurement": "inhibition at 50 µg/mL", "setting": "[1]; [15]", "result": 93, "unit": "%"}, {"measurement": "inhibition at 50 µg/mL", "setting": "[2]; Bel-7402, 50 μg/ml, Table 1, read-out: inhibition rate, Results (%) Bel-7402", "result": 14.4, "unit": "%"}, {"measurement": "inhibition at 50 µg/mL", "setting": "[2]; [16]", "result": 11, "unit": "%"}, {"measurement": "inhibition at 50 µg/mL", "setting": "[3]; MCF7, 50 μg/ml, Table 1, read-out: inhibition rate, Results (%) MCF-7", "result": 32.1, "unit": "%"}, {"measurement": "inhibition at 50 µg/mL", "setting": "[3]; [17]", "result": 22.4, "unit": "%"}, {"measurement": "inhibition at 50 µg/mL", "setting": "[4]; SMMC-7721, 50 μg/ml, Table 1, read-out: inhibition rate, Results (%) SMMC-7721", "result": 8.02, "unit": "%"}, {"measurement": "inhibition at 50 µg/mL", "setting": "[4]; [18]", "result": 8.96, "unit": "%"}, {"measurement": "inhibition at 50 µg/mL", "setting": "[5]; HL-60, 50 μg/ml, Table 1, read-out: inhibition rate, Results (%) HL-60", "result": 3.21, "unit": "%"}, {"measurement": "inhibition at 50 µg/mL", "setting": "[5]; [19]", "result": 4.89, "unit": "%"}, {"measurement": "inhibition at 50 µg/mL", "setting": "[6]; 50 μg/ml, Table 1, read-out: inhibition rate, Results (%) Hela", "result": 69.2, "unit": "%"}, {"measurement": "inhibition at 50 µg/mL", "setting": "[6]; [20]", "result": 70.2, "unit": "%"}, {"measurement": "inhibition at 50 µg/mL", "setting": "[7]; Table 1", "result": 6.89, "unit": "%"}, {"measurement": "inhibition at 50 µg/mL", "setting": "[7]; Table 2 (repeated screening)", "result": 0.02, "unit": "%"}, {"measurement": "inhibition rate of HIV-1 reverse transcriptase", "setting": "[8]; 120 ug/ml", "result": 60, "unit": "%"}, {"measurement": "IC50", "setting": "[8]; IC50, initial concentration 1/150 of the stock solution", "result": "< 392", "unit": "µM"}, {"measurement": "IC50", "setting": "[9]", "result": 117, "unit": "µM"}, {"measurement": "Cytopathy and cell status, Sample", "setting": "[10]", "result": "Normal"}]}, {"smiles": "CC(C)C1CC23OC1(O)C/C(=C\\Nc1ccc(O)cc1)C2CCC3C", "note": "(stereo not drawn) [Compound 5, Curcumol p-hydroxy aniline]", "values": [{"measurement": "inhibition rate, Results (%) U-937", "setting": "[1]; [21]", "result": 91.03, "unit": "%"}, {"measurement": "inhibition at 50 µg/mL", "setting": "[1]; [15]", "result": 95.6, "unit": "%"}, {"measurement": "inhibition at 50 µg/mL", "setting": "[1]; U-937, read-out: inhibition rate, Results (%) U-937, 50 μg/ml, Table 1", "result": 94, "unit": "%"}, {"measurement": "inhibition rate, Results (%) Bel-7402", "setting": "[2]; [21]", "result": 78.97, "unit": "%"}, {"measurement": "inhibition at 50 µg/mL", "setting": "[2]; [16]", "result": 81.5, "unit": "%"}, {"measurement": "inhibition at 50 µg/mL", "setting": "[2]; Bel-7402, read-out: inhibition rate, Results (%) Bel-7402, 50 μg/ml, Table 1", "result": 80.2, "unit": "%"}, {"measurement": "inhibition rate, Results (%) MCF-7", "setting": "[3]; [21]", "result": 95.53, "unit": "%"}, {"measurement": "inhibition at 50 µg/mL", "setting": "[3]; [17]", "result": 91, "unit": "%"}, {"measurement": "inhibition at 50 µg/mL", "setting": "[3]; MCF7, read-out: inhibition rate, Results (%) MCF-7, 50 μg/ml, Table 1", "result": 90.3, "unit": "%"}, {"measurement": "inhibition at 50 µg/mL", "setting": "[4]; [18]", "result": 86.9, "unit": "%"}, {"measurement": "inhibition at 50 µg/mL", "setting": "[4]; SMMC-7721, read-out: inhibition rate, Results (%) SMMC-7721, 50 μg/ml, Table 1", "result": 85, "unit": "%"}, {"measurement": "inhibition rate, Results (%) HL-60", "setting": "[5]; [21]", "result": 95.14, "unit": "%"}, {"measurement": "inhibition at 50 µg/mL", "setting": "[5]; [19]", "result": 90.9, "unit": "%"}, {"measurement": "inhibition at 50 µg/mL", "setting": "[5]; HL-60, read-out: inhibition rate, Results (%) HL-60, 50 μg/ml, Table 1", "result": 91.3, "unit": "%"}, {"measurement": "inhibition rate, Results (%) Hela", "setting": "[6]; [21]", "result": 94.55, "unit": "%"}, {"measurement": "inhibition at 50 µg/mL", "setting": "[6]; [20]", "result": 92.3, "unit": "%"}, {"measurement": "inhibition at 50 µg/mL", "setting": "[6]; read-out: inhibition rate, Results (%) Hela, 50 μg/ml, Table 1", "result": 94.4, "unit": "%"}, {"measurement": "inhibition rate, Results (%) LLC", "setting": "[7]; Table 1", "result": 3.21, "unit": "%"}, {"measurement": "inhibition rate, Results (%) LLC", "setting": "[7]; Table 3 (repeated screening)", "result": 86.54, "unit": "%"}, {"measurement": "inhibition at 50 µg/mL", "setting": "[7]; Table 2 (repeated screening)", "result": 85.1, "unit": "%"}, {"measurement": "IC50", "setting": "[11]", "result": 0.32, "unit": "µg/mL"}, {"measurement": "IC50", "setting": "[12]", "result": 0.42, "unit": "µg/mL"}, {"measurement": "IC50", "setting": "[13]", "result": 1, "unit": "µg/mL"}, {"measurement": "IC50", "setting": "[14]", "result": 0.4, "unit": "µg/mL"}, {"measurement": "IC50", "setting": "[8]; initial concentration 200 μg/ml, read-out: IC50", "result": "> 582", "unit": "µM"}, {"measurement": "inhibition at 100 µg/mL", "setting": "[9]; initial concentration 100 μg/ml, read-out: IC50", "result": "< 50", "unit": "%"}, {"measurement": "Cytopathy and cell status, Sample", "setting": "[10]", "result": "Good"}]}]}
